Reference: paper PMC13250552 (Proceedings of the National Academy of Sciences of the …, 2026)

How the values were obtained:
SiHa cells [1] = type: cell-based; conditions: 24 hours
RPE-1 cells = type: cell-based; conditions: p53 wild-type, HPV-negative
SiHa-C51S cells = type: cell-based; conditions: 24 hours
UM-SCC-104 = experiment: Immunoblot of p53 and p21 in UM-SCC-104 cells; type: cell-based, human; conditions: 24 hours
SiHa cells [2] = experiment: Senescence SA-β-gal assay, SiHa; type: cell-based, human; conditions: 48 h, KTI-240 3 μM, etoposide 2 μM
C51S cells = type: cell-based; conditions: 48 h, KTI-240 3 μM, etoposide 2 μM

COc1cc([C@@H]2c3cc4c(cc3[C@@H](O[C@@H]3O[C@@H]5CO[C@@H](C)O[C@H]5[C@H](O)[C@H]3O)[C@H]3COC(=O)[C@H]23)OCO4)cc(OC)c1O [etoposide]
p53 protein levels (Western blot) (SiHa cells [1]): induced p53 in both cell lines
p53 protein levels (Western blot) (RPE-1 cells): induced p53 in both cell lines
p53 protein levels (Western blot) (SiHa-C51S cells): etoposide did
p53 protein (immunoblot) (UM-SCC-104): did not induce p53
SA-β-gal senescence marker (SiHa cells [2]): induced
SA-β-gal senescence marker (C51S cells): induced
